From patent US4731109A, “Herbicidal 2-haloacetanilides” (Monsanto Company, priority 1982, dated 1988)
Read-outs that look alike come from different tables or passages of the source.

How the values were obtained:
Test in all cases: Field pre-emergence selectivity test
Format in all cases: in vivo
Barnyardgrass = conditions: Echinochloa crus-galli, 1008 h, 6 weeks, read-out: Percent Inhibition; for inhibition at 560 g/ha: 0.56 Kg/Ha; for inhibition at 1120 g/ha: 1.12 Kg/Ha; for inhibition at 2240 g/ha: 2.24 Kg/Ha; for inhibition at 4480 g/ha: 4.48 Kg/Ha
Method: (§1) The compound of Examples 1 and 2 was also tested in the field to determine its pre-emergence selectivity against foxtail (spp), barnyardgrass, wild proso millet, smartweed, lambsquarters and pigweed in a plurality of crops; the data (representing three replicate runs) are shown in Table VII for both surface application (S.A.) and soil incorporation (PPI, i.e., preplant incorporation) of the herbicide. The seeds were planted in a fine seedbed of silt loam of intermediate moisture. The seeds were planted at a depth of two inches (5.08 cm). First rainfall (0.2"; 0.51 cm) occurred the day following treatment, the second rain (0.25"; […]) two days after treatment; cumulative rainfall 22 days after treatment was 1.8" (4.57 cm). Observations were made 6 weeks after treatment.

Field Corn = conditions: Zea mays, 1008 h, 6 weeks, read-out: Percent Inhibition; for inhibition at 560 g/ha: 0.56 Kg/Ha; for inhibition at 1120 g/ha: 1.12 Kg/Ha; for inhibition at 2240 g/ha: 2.24 Kg/Ha; for inhibition at 4480 g/ha: 4.48 Kg/Ha
Method: as §1

Smartweed = conditions: 1008 h, 6 weeks, read-out: Percent Inhibition; for inhibition at 1120 g/ha: 1.12 Kg/Ha; for inhibition at 2240 g/ha: 2.24 Kg/Ha; for inhibition at 560 g/ha: 0.56 Kg/Ha; for inhibition at 4480 g/ha: 4.48 Kg/Ha
Method: as §1

Sorghum = conditions: 1008 h, 6 weeks, read-out: Percent Inhibition; for inhibition at 560 g/ha: 0.56 Kg/Ha; for inhibition at 1120 g/ha: 1.12 Kg/Ha; for inhibition at 2240 g/ha: 2.24 Kg/Ha; for inhibition at 4480 g/ha: 4.48 Kg/Ha
Method: as §1

foxtail (spp) = conditions: Setaria, 1008 h, 6 weeks, read-out: Percent Inhibition; for inhibition at 560 g/ha: 0.56 Kg/Ha; for inhibition at 1120 g/ha: 1.12 Kg/Ha; for inhibition at 2240 g/ha: 2.24 Kg/Ha; for inhibition at 4480 g/ha: 4.48 Kg/Ha
Method: as §1

pigweed = conditions: Amaranthus retroflexus, 1008 h, 6 weeks, read-out: Percent Inhibition; for inhibition at 560 g/ha: 0.56 Kg/Ha; for inhibition at 1120 g/ha: 1.12 Kg/Ha; for inhibition at 2240 g/ha: 2.24 Kg/Ha; for inhibition at 4480 g/ha: 4.48 Kg/Ha
Method: as §1

soybeans = conditions: Glycine max, 1008 h, 6 weeks, read-out: Percent Inhibition; for inhibition at 560 g/ha: 0.56 Kg/Ha; for inhibition at 1120 g/ha: 1.12 Kg/Ha; for inhibition at 2240 g/ha: 2.24 Kg/Ha; for inhibition at 4480 g/ha: 4.48 Kg/Ha
Method: as §1

## CC(C)OCN(C(=O)CCl)c1ccccc1C(F)(F)F [Example 2, N--(isopropoxymethyl)-2'-trifluoromethyl-2-chloroacetanilide]
Barnyardgrass; P.P.I.
  inhibition at 560 g/ha: 85%
  inhibition at 1120 g/ha: 88%
  inhibition at 2240 g/ha: 95%
  inhibition at 4480 g/ha: 100%
Barnyardgrass; S.A.
  inhibition at 560 g/ha: 50%
  inhibition at 1120 g/ha: 87%
  inhibition at 2240 g/ha: 90%
  inhibition at 4480 g/ha: 97%
Field Corn; P.P.I.
  inhibition at 560 g/ha: 0%
  inhibition at 1120 g/ha: 0%
  inhibition at 2240 g/ha: 0%
  inhibition at 4480 g/ha: 13%
Field Corn; S.A.
  inhibition at 560 g/ha: 0%
  inhibition at 1120 g/ha: 0%
  inhibition at 2240 g/ha: 0%
  inhibition at 4480 g/ha: 10%
Smartweed; P.P.I.
  inhibition at 1120 g/ha: 75%
  inhibition at 2240 g/ha: 95%
Smartweed; S.A.
  inhibition at 560 g/ha: 0%
  inhibition at 1120 g/ha: 10%
  inhibition at 2240 g/ha: 20%
  inhibition at 4480 g/ha: 63%
Sorghum; P.P.I.
  inhibition at 560 g/ha: 7%
  inhibition at 1120 g/ha: 27%
  inhibition at 2240 g/ha: 38%
  inhibition at 4480 g/ha: 90%
Sorghum; S.A.
  inhibition at 560 g/ha: 0%
  inhibition at 1120 g/ha: 0%
  inhibition at 2240 g/ha: 5%
  inhibition at 4480 g/ha: 33%
Foxtail (spp); P.P.I.
  inhibition at 560 g/ha: 77%
  inhibition at 1120 g/ha: 78%
  inhibition at 2240 g/ha: 87%
  inhibition at 4480 g/ha: 100%
Foxtail (spp); S.A.
  inhibition at 560 g/ha: 50%
  inhibition at 1120 g/ha: 85%
  inhibition at 2240 g/ha: 90%
  inhibition at 4480 g/ha: 97%
pigweed; P.P.I.
  inhibition at 560 g/ha: 33%
  inhibition at 1120 g/ha: 85%
  inhibition at 2240 g/ha: 85%
  inhibition at 4480 g/ha: 88%
pigweed; S.A.
  inhibition at 560 g/ha: 0%
  inhibition at 1120 g/ha: 0%
soybeans; P.P.I.
  inhibition at 560 g/ha: 3%
  inhibition at 1120 g/ha: 0%
  inhibition at 2240 g/ha: 13%
  inhibition at 4480 g/ha: 28%
soybeans; S.A.
  inhibition at 560 g/ha: 0%
  inhibition at 1120 g/ha: 0%
  inhibition at 2240 g/ha: 3%
  inhibition at 4480 g/ha: 10%

## CCOCN(C(=O)CCl)c1c(C)cccc1C(F)(F)F [Example 1, N-(ethoxymethyl)-2'-trifluoromethyl-6'-methyl-2-chloroacetanilide]
Barnyardgrass; P.P.I.
  inhibition at 560 g/ha: 75%
  inhibition at 1120 g/ha: 93%
  inhibition at 2240 g/ha: 98%
  inhibition at 4480 g/ha: 100%
Barnyardgrass; S.A.
  inhibition at 560 g/ha: 63%
  inhibition at 1120 g/ha: 93%
  inhibition at 2240 g/ha: 93%
  inhibition at 4480 g/ha: 98%
Field Corn; P.P.I.
  inhibition at 560 g/ha: 0%
  inhibition at 1120 g/ha: 0%
  inhibition at 2240 g/ha: 5%
  inhibition at 4480 g/ha: 32%
Field Corn; S.A.
  inhibition at 560 g/ha: 0%
  inhibition at 1120 g/ha: 0%
  inhibition at 2240 g/ha: 0%
  inhibition at 4480 g/ha: 15%
Smartweed; P.P.I.
  inhibition at 560 g/ha: 20%
  inhibition at 2240 g/ha: 75%
  inhibition at 4480 g/ha: 85%
Smartweed; S.A.
  inhibition at 560 g/ha: 0%
  inhibition at 1120 g/ha: 0%
  inhibition at 2240 g/ha: 50%
  inhibition at 4480 g/ha: 90%
Sorghum; P.P.I.
  inhibition at 560 g/ha: 32%
  inhibition at 1120 g/ha: 53%
  inhibition at 2240 g/ha: 92%
  inhibition at 4480 g/ha: 98%
Sorghum; S.A.
  inhibition at 560 g/ha: 0%
  inhibition at 1120 g/ha: 3%
  inhibition at 2240 g/ha: 17%
  inhibition at 4480 g/ha: 77%
Foxtail (spp); P.P.I.
  inhibition at 560 g/ha: 75%
  inhibition at 1120 g/ha: 90%
  inhibition at 2240 g/ha: 98%
  inhibition at 4480 g/ha: 100%
Foxtail (spp); S.A.
  inhibition at 560 g/ha: 62%
  inhibition at 1120 g/ha: 92%
  inhibition at 2240 g/ha: 93%
  inhibition at 4480 g/ha: 98%
pigweed; P.P.I.
  inhibition at 560 g/ha: 50%
  inhibition at 1120 g/ha: 85%
  inhibition at 2240 g/ha: 85%
  inhibition at 4480 g/ha: 95%
pigweed; S.A.
  inhibition at 560 g/ha: 0%
  inhibition at 1120 g/ha: 0%
soybeans; P.P.I.
  inhibition at 560 g/ha: 5%
  inhibition at 1120 g/ha: 7%
  inhibition at 2240 g/ha: 20%
  inhibition at 4480 g/ha: 40%
soybeans; S.A.
  inhibition at 560 g/ha: 0%
  inhibition at 1120 g/ha: 5%
  inhibition at 2240 g/ha: 0%
  inhibition at 4480 g/ha: 13%
